# Target: T1, ZAP-70 (Homo sapiens, UniProt P43403)
# T1 construct: endogenous in cells; host or cells: cell lysate
# T1 sequence (P43403 1-619): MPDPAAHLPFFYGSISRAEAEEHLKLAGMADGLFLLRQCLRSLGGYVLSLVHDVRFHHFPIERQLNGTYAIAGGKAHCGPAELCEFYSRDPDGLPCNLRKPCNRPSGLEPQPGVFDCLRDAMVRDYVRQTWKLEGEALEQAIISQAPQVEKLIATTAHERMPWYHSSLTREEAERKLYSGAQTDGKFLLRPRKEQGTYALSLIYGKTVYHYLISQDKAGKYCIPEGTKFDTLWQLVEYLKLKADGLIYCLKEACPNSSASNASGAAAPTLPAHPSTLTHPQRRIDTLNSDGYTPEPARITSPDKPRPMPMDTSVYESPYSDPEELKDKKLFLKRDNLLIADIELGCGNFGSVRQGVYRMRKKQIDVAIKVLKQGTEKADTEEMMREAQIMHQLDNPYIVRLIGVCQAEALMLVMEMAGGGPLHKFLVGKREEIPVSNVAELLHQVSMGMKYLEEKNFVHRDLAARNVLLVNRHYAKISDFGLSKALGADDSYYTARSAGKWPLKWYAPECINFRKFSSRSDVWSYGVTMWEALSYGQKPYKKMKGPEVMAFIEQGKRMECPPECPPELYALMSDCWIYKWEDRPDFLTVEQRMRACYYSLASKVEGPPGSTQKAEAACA
# Test: ZAP-70 kinobeads assay
# Format: binding
# Details: cell lysate, affinity matrix with immobilized aminopyrido-pyrimidine ligand 24, dot blot detection
# Method: The compounds of the present invention as described in the previous examples can be tested in the ZAP-70 kinobeads assay as described (EP-A 1862802 and WO-A 2007/137867). Briefly, test compounds (at various concentrations) and the affinity matrix with the immobilized aminopyrido-pyrimidine ligand 24 are added to cell lysate aliquots and allowed to bind to the proteins in the lysate sample. After the incubation time the beads with captured proteins are separated from the lysate. Bound proteins are then eluted and the presence ZAP-70 is detected and quantified using a specific antibody in a dot blot procedure and the Odyssey infrared detection system.
row,IC50 [nM],Compound
1,100 to 1000,"COc1ccc(Nc2nc(Nc3cc(F)c(OC)cc3OC)ncc2Cl)c(N(CCN)S(C)(=O)=O)c1 [Example 10, N-(2-aminoethyl)-N-(2-(5-chloro-2-(5-fluoro-2,4-dimethoxyphenylamino)pyrimidin-4-ylamino)-5-methoxyphenyl)methanesulfonamide]"
2,100 to 1000,"COc1cc(Nc2ncc(F)c(Nc3cccc(C)c3N(CCNC=O)S(C)(=O)=O)n2)cc(OC)c1OC [Example 20, N-(2-(N-(2-(5-fluoro-2-(3,4,5-trimethoxyphenylamino)pyrimidin-4-ylamino)-6-methylphenyl)methylsulfonamido)ethyl)formamide]"
3,100 to 1000,"COc1cc(Nc2ncc(F)c(Nc3cccc(C)c3N(CCNC(C)=O)S(C)(=O)=O)n2)cc(OC)c1OC [Example 26, N-(2-(N-(2-(5-fluoro-2-(3,4,5-trimethoxyphenylamino)pyrimidin-4-ylamino)-6-methylphenyl)methylsulfonamido)ethyl)acetamide]"

# From patent US20120165332A1, “SULFONAMIDES AND SULFAMIDES AS ZAP-70 INHIBITORS” (Cellzome Limited, priority 2009, published 2012)
